Measurements as given in patent publication US12503438B2, “Compounds for the treatment of kinase-dependent disorders” (Exelixis, Inc., priority 2019, dated 2025).

Columns and labels:
AXL = target: T1, AXL (Homo sapiens, UniProt P30530); experiment: AXL autophosphorylation ELISA in A-172 cells; assay type: cell-based; settings: cellular activity, Gas6-stimulated, phospho-AXL ELISA
T1 construct: endogenous in cells; host or cells: A-172 glioblastoma cells (ATCC #CRL-1620)
T1 sequence (P30530 26-894): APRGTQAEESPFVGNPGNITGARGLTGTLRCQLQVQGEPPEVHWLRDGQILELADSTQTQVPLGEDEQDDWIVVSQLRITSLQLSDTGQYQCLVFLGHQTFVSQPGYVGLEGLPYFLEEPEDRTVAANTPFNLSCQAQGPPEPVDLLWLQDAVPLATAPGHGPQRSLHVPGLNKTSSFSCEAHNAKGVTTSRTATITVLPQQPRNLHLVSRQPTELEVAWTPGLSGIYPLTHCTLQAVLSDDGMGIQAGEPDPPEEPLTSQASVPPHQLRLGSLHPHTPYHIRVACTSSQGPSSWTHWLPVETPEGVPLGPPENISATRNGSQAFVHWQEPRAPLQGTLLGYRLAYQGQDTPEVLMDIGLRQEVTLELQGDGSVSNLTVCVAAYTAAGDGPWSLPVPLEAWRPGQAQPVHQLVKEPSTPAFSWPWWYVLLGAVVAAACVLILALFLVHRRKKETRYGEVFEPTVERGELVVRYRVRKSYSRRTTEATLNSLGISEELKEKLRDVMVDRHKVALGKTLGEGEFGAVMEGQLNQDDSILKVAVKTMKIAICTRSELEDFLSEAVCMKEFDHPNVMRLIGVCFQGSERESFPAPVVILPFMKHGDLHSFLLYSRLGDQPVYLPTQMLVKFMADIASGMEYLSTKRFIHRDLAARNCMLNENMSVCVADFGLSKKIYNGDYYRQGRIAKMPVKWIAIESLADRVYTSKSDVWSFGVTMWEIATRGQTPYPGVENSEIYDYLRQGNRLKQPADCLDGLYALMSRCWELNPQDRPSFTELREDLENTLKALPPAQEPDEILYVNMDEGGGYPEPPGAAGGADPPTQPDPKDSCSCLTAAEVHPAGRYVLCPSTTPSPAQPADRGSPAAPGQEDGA
Outline: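 Serum-starved (24 h) A-172 glioblastoma cells got an 8-point compound series (0.3% DMSO) for 1 h, then 1 μg/mL human Gas6 for 15 min. Lysate phospho-AXL quantified by ELISA against phospho-AXL standard, normalized to DMSO and reference-inhibitor controls; IC50 by 4-parameter logistic fit.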

KDR = KDR (Homo sapiens, UniProt P35968); experiment: KDR autophosphorylation ELISA in HUVEC cells; assay type: cell-based; design: endogenous in cells; host or cells: HUVEC (Lonza #C2519A); settings: cellular activity, VEGF165-stimulated, phospho-KDR ELISA
Chain of KDR (P35968 20-1356): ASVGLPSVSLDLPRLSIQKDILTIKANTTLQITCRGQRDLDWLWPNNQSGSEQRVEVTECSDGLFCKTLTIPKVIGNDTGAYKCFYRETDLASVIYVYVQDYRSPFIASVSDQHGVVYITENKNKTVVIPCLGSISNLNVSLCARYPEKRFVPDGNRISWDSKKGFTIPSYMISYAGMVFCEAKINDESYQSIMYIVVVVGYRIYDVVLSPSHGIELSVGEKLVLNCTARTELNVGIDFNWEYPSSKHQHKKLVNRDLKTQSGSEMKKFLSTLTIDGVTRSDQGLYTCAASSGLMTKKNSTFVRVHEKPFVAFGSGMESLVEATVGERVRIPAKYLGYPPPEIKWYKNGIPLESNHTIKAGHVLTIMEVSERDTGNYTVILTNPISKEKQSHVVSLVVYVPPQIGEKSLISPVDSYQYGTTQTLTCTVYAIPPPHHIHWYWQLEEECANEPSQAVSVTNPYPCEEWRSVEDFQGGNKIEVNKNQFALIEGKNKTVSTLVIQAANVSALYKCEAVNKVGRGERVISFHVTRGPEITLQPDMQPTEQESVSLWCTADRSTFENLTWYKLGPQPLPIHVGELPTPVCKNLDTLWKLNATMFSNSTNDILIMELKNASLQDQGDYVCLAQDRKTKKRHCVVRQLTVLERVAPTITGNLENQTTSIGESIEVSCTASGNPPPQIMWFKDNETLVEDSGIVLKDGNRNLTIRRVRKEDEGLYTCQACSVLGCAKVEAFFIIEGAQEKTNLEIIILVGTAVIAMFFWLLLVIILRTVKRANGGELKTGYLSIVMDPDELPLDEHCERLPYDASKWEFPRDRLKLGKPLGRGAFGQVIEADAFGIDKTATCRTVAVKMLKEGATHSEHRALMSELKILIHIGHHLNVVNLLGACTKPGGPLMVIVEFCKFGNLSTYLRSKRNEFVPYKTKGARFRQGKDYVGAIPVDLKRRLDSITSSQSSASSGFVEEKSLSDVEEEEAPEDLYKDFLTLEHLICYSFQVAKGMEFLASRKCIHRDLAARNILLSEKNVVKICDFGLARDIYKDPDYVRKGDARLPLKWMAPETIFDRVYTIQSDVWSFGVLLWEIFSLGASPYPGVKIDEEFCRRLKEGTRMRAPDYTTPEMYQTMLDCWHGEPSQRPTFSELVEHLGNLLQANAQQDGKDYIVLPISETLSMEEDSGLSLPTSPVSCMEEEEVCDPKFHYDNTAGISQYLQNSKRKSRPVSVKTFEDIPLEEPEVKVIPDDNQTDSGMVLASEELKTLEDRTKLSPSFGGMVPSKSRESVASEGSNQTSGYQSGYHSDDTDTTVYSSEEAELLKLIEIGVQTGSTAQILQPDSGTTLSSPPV
Outline: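 Serum-starved (24 h) primary HUVEC were pretreated 1 h with compounds (8-point dilution, 0.3% DMSO final), then stimulated 5 min with 100 ng/mL VEGF165. Lysate phospho-KDR quantified by sandwich ELISA against a phospho-KDR standard; IC50 by 4-parameter fit, normalised to stimulated DMSO and unstimulated controls.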

Row | SMILES | IC50 (AXL) | IC50 (KDR)
1 | O=C(Nc1ccc(F)cc1)C1(C(=O)Nc2ccc(Oc3ccnc4cc(-c5nnco5)ccc34)cc2)CC1 [Compound 73, 1-N′-(4-Fluorophenyl)-1-N-[4-[7-(1,3,4-oxadiazol-2-yl)quinolin-4-yl]oxyphenyl]cyclopropane-1,1-dicarboxamide] | 0.01 to 0.1 µM | 0.01 to 0.1 µM
2 | O=C(Nc1ccc(F)cc1)C1(C(=O)Nc2ccc(Oc3ccnc4cc(-c5ncc[nH]5)ccc34)cc2)CC1 [Compound 74, 1-N′-(4-Fluorophenyl)-1-N-[4-[7-(1H-imidazol-2-yl)quinolin-4-yl]oxyphenyl]cyclopropane-1,1-dicarboxamide] | 0.01 to 0.1 µM | ≤ 0.01 µM
3 | Cn1ccnc1-c1ccc2c(Oc3ccc(NC(=O)C4(C(=O)Nc5ccc(F)cc5)CC4)cc3)ccnc2c1 [Compound 75, 1-N′-(4-Fluorophenyl)-1-N-[4-[7-(1-methylimidazol-2-yl)quinolin-4-yl]oxyphenyl]cyclopropane-1,1-dicarboxamide] | 0.01 to 0.1 µM | 0.01 to 0.1 µM
4 | COc1cc2c(Oc3ccc(NC(=O)C4(C(=O)Nc5ccc(F)cc5)CC4)cc3)ccnc2cc1-c1cnn(C)c1 [Compound 76, 1-N′-(4-Fluorophenyl)-1-N-[4-[6-methoxy-7-(1-methylpyrazol-4-yl)quinolin-4-yl]oxyphenyl]cyclopropane-1,1-dicarboxamide] | ≤ 0.01 µM | 0.01 to 0.1 µM
5 | CNC(=O)c1cc2c(Oc3ccc(NC(=O)C4(C(=O)Nc5ccc(F)cc5)CC4)cc3)ccnc2cc1-c1cnn(C)c1 [Compound 77, 1-N′-(4-Fluorophenyl)-1-N-[4-[6-(methylcarbamoyl)-7-(1-methylpyrazol-4-yl)quinolin-4-yl]oxyphenyl]cyclopropane-1,1-dicarboxamide] | 0.01 to 0.1 µM | 0.01 to 0.1 µM
6 | Cc1cc2c(Oc3ccc(NC(=O)C4(C(=O)Nc5ccc(F)cc5)CC4)cc3)ccnc2cc1-c1cnn(C)c1 [Compound 78, 1-N′-(4-Fluorophenyl)-1-N-[4-[6-methyl-7-(1-methylpyrazol-4-yl)quinolin-4-yl]oxyphenyl]cyclopropane-1,1-dicarboxamide] | 0.01 to 0.1 µM | 0.01 to 0.1 µM
7 | CS(=O)(=O)n1cc(-c2ccc3c(Oc4ccc(NC(=O)C5(C(=O)Nc6ccc(F)cc6)CC5)cc4)ccnc3c2)cn1 [Compound 79, 1-N′-(4-Fluorophenyl)-1-N-[4-[7-(1-methylsulfonylpyrazol-4-yl)quinolin-4-yl]oxyphenyl]cyclopropane-1,1-dicarboxamide] | ≤ 0.01 µM | ≤ 0.01 µM
8 | CC1Cc2cc(F)ccc2N1C(=O)C1(C(=O)Nc2ccc(Oc3ccnc4cc(-c5cnn(C)c5)ccc34)cc2)CC1 (stereo not shown) [Compound 80, 1-(5-Fluoro-2-methyl-2,3-dihydroindole-1-carbonyl)-N-[4-[7-(1-methylpyrazol-4-yl)quinolin-4-yl]oxyphenyl]cyclopropane-1-carboxamide] | 0.01 to 0.1 µM | > 0.3 µM
9 | Cn1cc(-c2ccc3c(Oc4ccc(NC(=O)C5(C(=O)N6CCc7cc(F)ccc76)CC5)cc4)ccnc3c2)cn1 [Compound 81, 1-(5-Fluoro-2,3-dihydroindole-1-carbonyl)-N-[4-[7-(1-methylpyrazol-4-yl)quinolin-4-yl]oxyphenyl]cyclopropane-1-carboxamide] | 0.01 to 0.1 µM | > 0.3 µM
10 | Cc1cc(F)cc(C)c1NC(=O)C1(C(=O)Nc2ccc(Oc3ccnc4cc(-c5cnn(C)c5)ccc34)cc2)CC1 [Compound 82, 1-N′-(4-Fluoro-2,6-dimethylphenyl)-1-N-[4-[7-(1-methylpyrazol-4-yl)quinolin-4-yl]oxyphenyl]cyclopropane-1,1-dicarboxamide] | 0.01 to 0.1 µM | > 0.3 µM
11 | CN(C(=O)C1(C(=O)Nc2ccc(Oc3ccnc4cc(-c5cnn(C)c5)ccc34)cc2)CC1)c1ccc(F)cc1 [Compound 82A, 1-N′-(4-Fluorophenyl)-1-N′-methyl-1-N-[4-[7-(1-methylpyrazol-4-yl)quinolin-4-yl]oxyphenyl]cyclopropane-1,1-dicarboxamide] | > 0.3 µM | > 0.3 µM
12 | O=C(Nc1ccc(F)cc1)C1(C(=O)Nc2ccc(Oc3ccnc4cc(C5CCNC5)ccc34)cc2)CC1 (stereo not shown) [Compound 83, 1-N′-(4-Fluorophenyl)-1-N-[4-(7-pyrrolidin-3-ylquinolin-4-yl)oxyphenyl]cyclopropane-1,1-dicarboxamide] | 0.1 to 0.3 µM | 0.1 to 0.3 µM
13 | O=C(Nc1ccc(F)cc1)C1(C(=O)Nc2ccc(Oc3ccnc4cc(-c5ccn(C(F)F)n5)ccc34)cc2)CC1 [Compound 84, 1-N-[4-[7-[1-(Difluoromethyl)pyrazol-3-yl]quinolin-4-yl]oxyphenyl]-1-N′-(4-fluorophenyl)cyclopropane-1,1-dicarboxamide] | 0.01 to 0.1 µM | 0.01 to 0.1 µM
14 | O=C(Nc1ccc(F)cc1)C1(C(=O)Nc2ccc(Oc3ccnc4cc(-c5ccccn5)ccc34)cc2)CC1 [Compound 85, 1-N′-(4-Fluorophenyl)-1-N-[4-(7-pyridin-2-ylquinolin-4-yl)oxyphenyl]cyclopropane-1,1-dicarboxamide] | 0.01 to 0.1 µM | 0.01 to 0.1 µM
15 | Cn1ncc(-c2ccc3c(Oc4ccc(NC(=O)C5(C(=O)Nc6ccc(F)cc6)CC5)cc4)ccnc3c2)n1 [Compound 86, 1-N′-(4-Fluorophenyl)-1-N-[4-[7-(2-methyltriazol-4-yl)quinolin-4-yl]oxyphenyl]cyclopropane-1,1-dicarboxamide] | 0.01 to 0.1 µM | ≤ 0.01 µM
16 | O=C(Nc1ccc(F)cc1)C1(C(=O)Nc2ccc(Oc3ccnc4cc(-c5ccc[n+]([O-])c5)ccc34)cc2)CC1 [Compound 109, 1-N′-(4-Fluorophenyl)-1-N-[4-[7-(1-oxidopyridin-1-ium-3-yl)quinolin-4-yl]oxyphenyl]cyclopropane-1,1-dicarboxamide] | ≤ 0.01 µM | ≤ 0.01 µM
17 | Cc1cc2c(Oc3c(F)cc(NC(=O)C4(C(=O)Nc5ccc(F)cc5)CC4)c(F)c3F)ccnc2cc1-c1cnn(C)c1 [Compound 110, 1-N-(4-Fluorophenyl)-1-N′-[2,3,5-trifluoro-4-[6-methyl-7-(1-methylpyrazol-4-yl)quinolin-4-yl]oxyphenyl]cyclopropane-1,1-dicarboxamide] | 0.01 to 0.1 µM | 0.1 to 0.3 µM
18 | CN1CCN(c2cc(-c3ccc4c(Oc5ccc(NC(=O)C6(C(=O)Nc7ccc(F)cc7)CC6)cc5)ccnc4c3)ccn2)CC1 [Compound 111, 1-N′-(4-Fluorophenyl)-1-N-[4-[7-[2-(4-methylpiperazin-1-yl)pyridin-4-yl]quinolin-4-yl]oxyphenyl]cyclopropane-1,1-dicarboxamide] | 0.01 to 0.1 µM | 0.01 to 0.1 µM
19 | Cc1cc2c(Oc3cc(Cl)c(NC(=O)C4(C(=O)Nc5ccc(F)cc5)CC4)cc3F)ccnc2cc1-c1cnn(C)c1 [Compound 112, 1-N′-[2-Chloro-5-fluoro-4-[6-methyl-7-(1-methylpyrazol-4-yl)quinolin-4-yl]oxyphenyl]-1-N-(4-fluorophenyl)cyclopropane-1,1-dicarboxamide] | 0.01 to 0.1 µM | > 0.3 µM
20 | O=C(Nc1ccc(F)cc1)C1(C(=O)Nc2ccc(Oc3ccnc4cc(-c5cccnc5)ccc34)c(F)c2)CC1 [Compound 113, 1-N-(4-Fluorophenyl)-1-N′-[3-fluoro-4-(7-pyridin-3-ylquinolin-4-yl)oxyphenyl]cyclopropane-1,1-dicarboxamide] | 0.01 to 0.1 µM | ≤ 0.01 µM
21 | O=C(Nc1ccc(F)cc1)C1(C(=O)Nc2ccc(Oc3ccnc4cc(-c5ccncn5)ccc34)cc2)CC1 [Compound 114, 1-N′-(4-Fluorophenyl)-1-N-[4-(7-pyrimidin-4-ylquinolin-4-yl)oxyphenyl]cyclopropane-1,1-dicarboxamide] | 0.01 to 0.1 µM | ≤ 0.01 µM
22 | O=C(Nc1ccc(F)cc1)C1(C(=O)Nc2cc(F)c(Oc3ccnc4cc(-c5cccnc5)ccc34)cc2F)CC1 [Compound 115, 1-N′-[2,5-Difluoro-4-(7-pyridin-3-ylquinolin-4-yl)oxyphenyl]-1-N-(4-fluorophenyl)cyclopropane-1,1-dicarboxamide] | ≤ 0.01 µM | ≤ 0.01 µM
23 | O=C(Nc1ccc(F)cc1)C1(C(=O)Nc2ccc(Oc3ccnc4cc(-c5cncs5)ccc34)cc2)CC1 [Compound 116, 1-N′-(4-Fluorophenyl)-1-N-[4-[7-(1,3-thiazol-5-yl)quinolin-4-yl]oxyphenyl]cyclopropane-1,1-dicarboxamide] | 0.01 to 0.1 µM | ≤ 0.01 µM
